The text below walks through data of PubChem BioAssay (NCI).

Test systems include 786-0 renal; COLO 205 colon; HCT-116 colon; HOP-92 NSCLC; MDA-MB-435; MOLT-4 leukemia; SW-620 colon; TK-10 renal; U251 CNS; UO-31 renal.
Common to all, as to assay: growth of human tumour cells (NCI), 48 h

Molecules are shown by their SMILES.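 Method: 48-hour compound exposure of cells in 96-well plates, five concentrations, linear interpolation of endpoints. Abbreviation: GI50, concentration required for 50% inhibition of growth. TGI denotes the concentration required for complete inhibition of growth.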

As for `COc1cc(/C=C2/Oc3c(OC)cccc3C2=O)ccc1O`, the TGI with 786-0 renal, with COLO 205 colon, in the assay with HCT-116 colon, in the assay with HOP-92 NSCLC, in the assay on MDA-MB-435 and with MOLT-4 leukemia was more than 100 µM throughout. The TGI with SW-620 colon, with TK-10 renal, in the assay with U251 CNS and in the assay on UO-31 renal was more than 100 µM each time.
`CCN(CC)CCNc1ccc([N+](=O)[O-])c2sc3cc(Cl)ccc3c(=O)c12`: the GI50 in the assay with COLO 205 colon was 3.93 µM; in the assay on HCT-116 colon, 3.24 µM; in the assay with HOP-92 NSCLC, 2.15 µM; in the assay with MDA-MB-435, 2.83 µM; with MOLT-4 leukemia, 2.34 µM; with SW-620 colon, 2.33 µM. For the same compound, in the assay with TK-10 renal, the GI50 was 2.97 µM. Moreover, the TGI with COLO 205 colon was more than 100 µM; in the assay with HCT-116 colon it was more than 100 µM; in the assay with HOP-92 NSCLC, 30.3 µM; in the assay on MDA-MB-435 it was more than 100 µM; in the assay on MOLT-4 leukemia it was more than 100 µM; in the assay on SW-620 colon, 27.8 µM. The same compound displayed a TGI in the assay on TK-10 renal of more than 100 µM.
On to `NC(Cc1ccccc1CP(=O)(O)O)C(=O)O` (stereo unspecified), for which the TGI in the assay on COLO 205 colon, with HCT-116 colon, with HOP-92 NSCLC, in the assay with MDA-MB-435, with MOLT-4 leukemia and in the assay with SW-620 colon was more than 100 µM throughout. For the same compound, the TGI in the assay on TK-10 renal, in the assay on U251 CNS and in the assay on UO-31 renal was more than 100 µM throughout.
As to `COc1ccc(CC[N+]2(C)COc3cc4oc(=O)cc(C)c4cc3C2)cc1OC` (stereo unspecified), the TGI in the assay on 786-0 renal was more than 100 µM; with COLO 205 colon, more than 100 µM; with HCT-116 colon, more than 100 µM; in the assay on HOP-92 NSCLC, more than 100 µM; in the assay with MDA-MB-435 it was more than 100 µM; with MOLT-4 leukemia, 18 µM. Moreover, the TGI with SW-620 colon, with TK-10 renal, in the assay on U251 CNS and in the assay with UO-31 renal was more than 100 µM in each case.
With `C(=C\c1c2oc(-c3ccccc3)cc(-c3ccccc3)c-2c2ccccc12)/C=C1\c2ccccc2-c2c(-c3ccccc3)cc(-c3ccccc3)[o+]c21`, the TGI in the assay on 786-0 renal, in the assay on COLO 205 colon, in the assay with HCT-116 colon, with HOP-92 NSCLC, in the assay with MOLT-4 leukemia and in the assay with SW-620 colon was more than 100 µM each time. Further, the TGI in the assay on TK-10 renal, in the assay on U251 CNS and in the assay with UO-31 renal was more than 100 µM each time.
`Cc1ccc(NCCN(C)C)c2c(=O)c3cc(O)ccc3sc12`: the TGI in the assay with 786-0 renal stood at 9.07 µM; in the assay on COLO 205 colon it was 23.2 µM; in the assay on HCT-116 colon it was 8.79 µM; in the assay on HOP-92 NSCLC it was 14.4 µM; in the assay on MDA-MB-435, 2.94 µM; with MOLT-4 leukemia it was 3.2 µM. Further, the TGI in the assay with SW-620 colon is 5.76 µM; in the assay with TK-10 renal, 33.9 µM; in the assay with U251 CNS, 8.49 µM; in the assay with UO-31 renal, 17.4 µM.
For `Cc1ncc(CSC(=N)N)n1Cc1ccccc1`, the TGI in the assay on 786-0 renal, in the assay on COLO 205 colon, with HCT-116 colon, with HOP-92 NSCLC, with MDA-MB-435 and in the assay with SW-620 colon was more than 100 µM throughout. For the same compound, the TGI with TK-10 renal, in the assay with U251 CNS and in the assay on UO-31 renal was more than 100 µM throughout.
As to `CCOC(=O)c1csc(NC(=O)C(C)N2CCOCC2)n1` (stereo unspecified), the TGI in the assay with COLO 205 colon, with HOP-92 NSCLC, in the assay with MDA-MB-435, in the assay with MOLT-4 leukemia, with SW-620 colon and in the assay with TK-10 renal was more than 100 µM throughout. Further, the TGI with U251 CNS and with UO-31 renal was more than 100 µM each time.
In the case of `O=S(=O)(O)c1cc(O)c(N=Nc2ccc3ccccc3c2O)c2ccccc12`, the TGI is more than 100 µM with 786-0 renal; more than 100 µM in the assay with COLO 205 colon; more than 100 µM in the assay on HCT-116 colon; more than 100 µM with HOP-92 NSCLC; 97 µM in the assay on MOLT-4 leukemia; more than 100 µM with SW-620 colon. In addition, the TGI in the assay with TK-10 renal was more than 100 µM; in the assay with U251 CNS it was more than 100 µM; in the assay on UO-31 renal it was 65 µM.
`c1cncc([O][Ge]([O]c2cccnc2)([O]c2cccnc2)[O]c2cccnc2)c1`: the GI50 in the assay with COLO 205 colon, in the assay on HCT-116 colon, in the assay with SW-620 colon, with TK-10 renal, with U251 CNS and in the assay on UO-31 renal was more than 100 µM in each case. Besides, the TGI in the assay with COLO 205 colon, in the assay on HCT-116 colon, in the assay on SW-620 colon, in the assay on TK-10 renal, in the assay with U251 CNS and in the assay on UO-31 renal was more than 100 µM in each case.
On to `CC(C)=CC(=O)c1c(C(=O)O)nc2ccccc2[n+]1[O-]`, for which the TGI in the assay with 786-0 renal, in the assay with COLO 205 colon, in the assay on HCT-116 colon, with HOP-92 NSCLC, in the assay on MOLT-4 leukemia and in the assay with SW-620 colon was more than 100 µM throughout. Also, the TGI with TK-10 renal, in the assay on U251 CNS and with UO-31 renal was more than 100 µM in each case.
Turning to `CC(C)=CCC/C(C)=C/C=C/C(C)=C/C1C[C@@]2(C(O)O1)[C@H](CCCO)/C(=C(/C)C=O)CC[C@]2(C)O` (stereo partly specified), the TGI in the assay with COLO 205 colon amounted to 13.4 µM; with HCT-116 colon it was 37.9 µM; in the assay with MOLT-4 leukemia, 30.8 µM; in the assay with SW-620 colon it was 27.8 µM; in the assay with TK-10 renal, 62.8 µM; in the assay with UO-31 renal, 33.9 µM.
Regarding `CC(=O)[C@]1(O)Cc2c(O)c3c(c(O)c2[C@@H](OC2CC(N)C(O)C(C)O2)C1)C(=O)c1c(OCc2ccccc2)cccc1C3=O` (stereo partly specified), the TGI in the assay on 786-0 renal came out at 2.16 µM; in the assay on HCT-116 colon it was 1.79 µM; with HOP-92 NSCLC it was 22.6 µM; with MDA-MB-435 it was 2.95 µM; in the assay on SW-620 colon it was 2 µM; in the assay on TK-10 renal, 25 µM. The TGI in the assay with U251 CNS came out at 3.97 µM; with UO-31 renal, 8.79 µM.
With `O=C(O)/C=C/c1ccncc1`, the TGI in the assay on 786-0 renal, in the assay with COLO 205 colon, in the assay on HCT-116 colon, in the assay on HOP-92 NSCLC, with MOLT-4 leukemia and in the assay with SW-620 colon was more than 100 µM throughout. For the same compound, the TGI is more than 100 µM in the assay on TK-10 renal, 14 µM with U251 CNS and more than 100 µM with UO-31 renal.
With `COc1cc2c(cc1OCCCOc1ccc(-c3cc4ccccc4c4ccccc34)cc1)N=C[C@@H]1CCCN1C2=O`, the GI50 with COLO 205 colon was 1.19 µM; in the assay with HOP-92 NSCLC, 0.334 µM; in the assay on MDA-MB-435, 0.343 µM; in the assay with MOLT-4 leukemia, 0.186 µM; in the assay with SW-620 colon, 0.513 µM; in the assay with TK-10 renal, 0.646 µM. The GI50 was 0.91 µM with U251 CNS and 0.169 µM in the assay with UO-31 renal. Also, the TGI turned out to be 2.44 µM with COLO 205 colon; 1.53 µM in the assay with HOP-92 NSCLC; 1.31 µM with MDA-MB-435; 0.432 µM with MOLT-4 leukemia; 1.86 µM with SW-620 colon; 1.79 µM in the assay with TK-10 renal. Besides, the TGI in the assay with U251 CNS came to 2.11 µM; in the assay on UO-31 renal, 0.593 µM.
With `CC1(Cl)CC(C)(/C=C/Cl)C(Cl)CC1Cl` (stereo unspecified), the TGI is 29.1 µM in the assay with 786-0 renal; 30 µM in the assay on HCT-116 colon; 16.8 µM in the assay on HOP-92 NSCLC; more than 100 µM in the assay with MOLT-4 leukemia; 30.8 µM in the assay with SW-620 colon; 76.7 µM with TK-10 renal. For the same compound, the TGI with U251 CNS amounted to 30.8 µM; in the assay on UO-31 renal, 29.8 µM.
For the compound `C[n+]1c(-c2ccc(/C=N/NC(=O)C(=O)N/N=C/c3ccc(-c4cn5ccccc5[n+]4C)cc3)cc2)cn2ccccc21`, the TGI in the assay with 786-0 renal, in the assay with COLO 205 colon, with HOP-92 NSCLC, with MDA-MB-435, in the assay on MOLT-4 leukemia and in the assay with SW-620 colon was more than 100 µM throughout. The TGI in the assay with TK-10 renal, in the assay on U251 CNS and in the assay with UO-31 renal was more than 100 µM throughout.
Regarding `Cc1ccc(NC(=O)C(=O)Cc2cccc[n+]2[O-])cc1C`, the TGI with 786-0 renal, in the assay on COLO 205 colon, in the assay on HCT-116 colon, in the assay on MOLT-4 leukemia, in the assay with SW-620 colon and in the assay on TK-10 renal was more than 100 µM each time. Besides, the TGI with U251 CNS and in the assay on UO-31 renal was more than 100 µM throughout.
In the case of `C/C(=N\NC(=S)N1CCOCC1)c1nc2ncccc2[nH]1`, the TGI is more than 100 µM in the assay on COLO 205 colon; more than 100 µM in the assay on HCT-116 colon; 68 µM with HOP-92 NSCLC; more than 100 µM with MDA-MB-435; more than 100 µM in the assay on MOLT-4 leukemia; more than 100 µM with SW-620 colon. Further, the values for the TGI with TK-10 renal, in the assay on U251 CNS and in the assay with UO-31 renal were more than 100 µM, 81.8 µM and 96.2 µM, respectively.
Consider `CC1CCCN1CCCOC(=O)c1ccc(OC2C=CCCC2)cc1` (stereo unspecified), for which the TGI was 40.4 µM in the assay on 786-0 renal; 31.4 µM in the assay on COLO 205 colon; 35.8 µM in the assay with HCT-116 colon; more than 100 µM in the assay with MDA-MB-435; 55.3 µM in the assay with MOLT-4 leukemia; 46.4 µM in the assay on SW-620 colon. In addition, the TGI in the assay with TK-10 renal is 88.8 µM; in the assay with U251 CNS it was more than 100 µM; in the assay on UO-31 renal, more than 100 µM.
